From patent US12187713B2, “Immunomodulators, compositions and methods thereof” (Betta Pharmaceuticals Co., Ltd, priority 2019, dated 2025)
pIC50: −log10 of the molar value.

Target: PD-1/PD-L1 (Homo sapiens (Human), UniProt Q9NZQ7)
Assay: PD-1/PD-L1 Binding Assay (Alphascreen)
Conditions: numeric values
How it was run: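 PD-1/PD-L1 binding detected by anti-6×His acceptor and streptavidin donor beads after 120 min in the dark at 25 °C. Beforehand, the two proteins were incubated 15 min at 25 °C with inhibitor at 0.015–300 nM (1% DMSO). IC50 comes from a log concentration–response curve.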

PD-1/PD-L1, sequence (Q9NZQ7 19-238): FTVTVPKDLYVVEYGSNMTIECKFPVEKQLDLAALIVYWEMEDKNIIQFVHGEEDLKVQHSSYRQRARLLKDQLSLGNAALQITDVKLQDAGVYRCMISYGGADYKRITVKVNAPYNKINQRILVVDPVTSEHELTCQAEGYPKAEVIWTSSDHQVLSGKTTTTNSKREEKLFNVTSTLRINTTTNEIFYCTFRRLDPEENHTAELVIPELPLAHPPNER

Question: `Cc1c(-c2ccc(CN3CCCC3)c(OC(F)(F)F)c2)cccc1-c1cccc(-c2nc3cc(CN4CCC[C@H]4C(=O)O)c(OC(F)F)cc3o2)c1C` [Example 232, ((6-(difluoromethoxy)-2-(2,2′-dimethyl-4″- (pyrrolidin-1-ylmethyl)-3″-(trifluoromethoxy)-[1,1′:3′,1″-terphenyl]-3-yl)benzo[d]oxazol-5-yl)methyl)-L-proline] was tested. Which pIC50 did it give?
Answer: 8.11

Question: `Cc1c(-c2nc3cc(CN4CCC[C@H]4C(=O)O)c(OC(F)F)cc3o2)cccc1-c1cccc(-c2nc3cc(CN4CC(C)(C)C4)c(OC(F)F)cc3o2)c1C#N` [Example 4, ((2-(2′-cyano-3′-(6-(difluoromethoxy)-5-((3,3-dimethylazetidin-1-yl)methyl)benzo[d]oxazol-2-yl)-2-methyl-[1,1′-biphenyl]-3-yl)-6-(difluoromethoxy)benzo[d]oxazol-5-yl)methyl)-L-proline] was tested. Which pIC50 did it give?
Answer: 8.85

Question: `Cc1c(-c2ccc(CNCCO)c(F)c2)cccc1-c1cccc(-c2nc3cc(CN4CCC[C@H]4C(=O)O)c(OC(F)F)cc3o2)c1C` [Example 239, ((6-(difluoromethoxy)-2-(3″-fluoro-4″-(((2-hydroxyethyl)amino)methyl)-2,2′-dimethyl-[1,1′:3′,1″-terphenyl]-3-yl)benzo[d]oxazol-5-yl)methyl)-L-proline] was tested. Which pIC50 did it give?
Answer: 9.00

Question: `Cc1c(Nc2nccc3cc(CN4CCOCC4)cnc23)cccc1-c1cccc(-c2nc3cc(CN4CCC[C@H]4C(=O)O)c(OC(F)F)cc3o2)c1C` [Example 176, ((6-(difluoromethoxy)-2-(2,2′-dimethyl-3′-((3-(morpholinomethyl)-1,7-naphthyridin-8-yl)amino)-[1,1′-biphenyl]-3-yl)benzo[d]oxazol-5-yl)methyl)-L-proline] was tested. Which pIC50 did it give?
Answer: 9.05

Question: With `Cc1c(NC(=O)c2cn3c(n2)CNCC3)cccc1-c1cccc(-c2nc3cc(CN4CCC[C@H]4C(=O)O)c(OC(F)F)cc3o2)c1C` [Example 303, ((6-(difluoromethoxy)-2-(2,2′-dimethyl-3′-(5,6,7,8-tetrahydroimidazo[1,2-a]pyrazine-2-carboxamido)-[1,1′-biphenyl]-3-yl)benzo[d]oxazol-5-yl)methyl)-L-proline] as the molecule, how does the pIC50 read?
Answer: 8.80

Question: `CCNCc1cc2nc(-c3cccc(-c4cccc(-c5nc6cc(CN7CCC[C@H]7C(=O)O)c(OC(F)F)cc6o5)c4C)c3C)oc2cc1F` [Example 96, ((6-(difluoromethoxy)-2-(3′-(5-((ethylamino)methyl)-6-fluorobenzo[d]oxazol-2-yl)-2,2′-dimethyl-[1,1′-biphenyl]-3-yl)benzo[d]oxazol-5-yl)methyl)-L-proline] was tested. Which pIC50 did it give?
Answer: 9.22

Same assay, conditions: range symbols

Question: How did the pIC50 turn out when `COC1CN(Cc2cc3nc(-c4cccc(-c5cccc(-c6nc7cc(CN8CCC[C@H]8C(=O)O)c(OC(F)F)cc7o6)c5C)c4C)oc3cc2OC(F)F)C1` [Example 43, ((6-(difluoromethoxy)-2-(3′-(6-(difluoromethoxy)-5-((3-methoxyazetidin-1-yl)methyl)benzo[d]oxazol-2-yl)-2,2′-dimethyl-[1,1′-biphenyl]-3-yl)benzo[d]oxazol-5-yl)methyl)-L-proline] was run?
Answer: 7.30 to 8.30

Question: `Cc1c(-c2nc3cc(CN4CCCC4)cc(C#N)c3[nH]2)cccc1-c1cccc(-c2nc3cc(CN4CCC[C@H]4C(=O)O)c(OC(F)F)cc3o2)c1C` [Example 295, ((2-(3′-(7-cyano-5-(pyrrolidin-1-ylmethyl)-1H-benzo[d]imidazol-2-yl)-2,2′-dimethyl-[1,1′-biphenyl]-3-yl)-6-(difluoromethoxy)benzo[d]oxazol-5-yl)methyl)-L-proline] was tested. Which pIC50 did it give?
Answer: 7.30 to 8.30

Question: `Cc1c(-c2nc3cc(CN4CCC[C@H]4C(=O)O)c(OC(F)F)cc3o2)cccc1-c1cccc(-c2nc3cc(CN4CC(N(C)C5COC5)C4)cc(C#N)c3o2)c1C` [Example 149, ((2-(3′-(7-cyano-5-((3-(methyl(oxetan-3-yl)amino)azetidin-1-yl)methyl)benzo[d]oxazol-2-yl)-2,2′-dimethyl-[1,1′-biphenyl]-3-yl)-6-(difluoromethoxy)benzo[d]oxazol-5-yl)methyl)-L-proline] was tested. Which pIC50 did it give?
Answer: 8.30 to 10.00

Question: With `Cc1c(-c2nc3cc(CN4CCC[C@H]4C(=O)O)c(OC(F)F)cc3o2)cccc1-c1cccc(-c2nc3cc(CN4CC(N5CCOCC5)C4)cc(C#N)c3o2)c1C` [Example 148, ((2-(3′-(7-cyano-5-((3-morpholinoazetidin-1-yl)methyl)benzo[d]oxazol-2-yl)-2,2′-dimethyl-[1,1′-biphenyl]-3-yl)-6-(difluoromethoxy)benzo[d]oxazol-5-yl)methyl)-L-proline] as the molecule, how does the pIC50 read?
Answer: 7.30 to 8.30

Question: How did the pIC50 turn out when `Cc1c(Nc2nccc3cc(CN4CCC(O)C4)cnc23)cccc1-c1cccc(-c2nc3cc(CN4CC[C@H](C(=O)O)C4)c(OC(F)F)cc3o2)c1C` (stereo partly drawn) [Example 180, (3S)-1-((6-(difluoromethoxy)-2-(3′-((3-((3-hydroxypyrrolidin-1-yl)methyl)-1,7-naphthyridin-8-yl)amino)-2,2′-dimethyl-[1,1′-biphenyl]-3-yl)benzo[d]oxazol-5-yl)methyl)pyrrolidine-3-carboxylic acid] was run?
Answer: 8.30 to 10.00

Question: How did the pIC50 turn out when `C=Cc1cc(-c2cccc(-c3cccc(-c4nc5cc(CN6CCC[C@H]6C(=O)O)c(OC(F)F)cc5o4)c3C)c2C)ncc1CN1CCCC1` [Example 274, ((6-(difluoromethoxy)-2-(2,2′-dimethyl-3′-(5-(pyrrolidin-1-ylmethyl)-4-vinylpyridin-2-yl)-[1,1′-biphenyl]-3-yl)benzo[d]oxazol-5-yl)methyl)-L-proline] was run?
Answer: 8.30 to 10.00

Question: With `Cc1c(-c2nc3cc(CN4CCC45COC5)ccc3o2)cccc1-c1cccc(-c2nc3cc(CN4CCC[C@H]4C(=O)O)c(OC(F)F)cc3o2)c1C` [Example 106, ((2-(3′-(5-((6-oxa-1-azaspiro[3.3]heptan-1-yl)methyl)benzo[d]oxazol-2-yl)-2,2′-dimethyl-[1,1′-biphenyl]-3-yl)-6-(difluoromethoxy)benzo[d]oxazol-5-yl)methyl)-L-proline] as the molecule, how does the pIC50 read?
Answer: 8.30 to 10.00

Question: With `COc1nc(-c2cccc(-c3cccc(-c4nc5cc(CN6CCC[C@H]6C(=O)O)c(OC(F)F)cc5o4)c3C)c2C)ccc1CN1CC(C)(C)C1` [Example 271, ((6-(difluoromethoxy)-2-(3′-(5-((3,3-dimethylazetidin-1-yl)methyl)-6-methoxypyridin-2-yl)-2,2′-dimethyl-[1,1′-biphenyl]-3-yl)benzo[d]oxazol-5-yl)methyl)-L-proline] as the molecule, how does the pIC50 read?
Answer: 8.30 to 10.00

Question: With `Cc1c(-c2ccc(CN3CC[C@@H](c4nnn[nH]4)C3)c(F)c2)cccc1-c1cccc(-c2nc3cc(CN4CCC[C@H]4C(=O)O)c(OC(F)F)cc3o2)c1C` [Example 251, ((2-(4″-(((R)-3-(1H-tetrazol-5-yl)pyrrolidin-1-yl)methyl)-3″-fluoro-2,2′-dimethyl-[1,1′:3′,1″- terphenyl]-3-yl)-6-(difluoromethoxy)benzo[d]oxazol-5-yl)methyl)proline] as the molecule, how does the pIC50 read?
Answer: 7.30 to 8.30

Question: `Cc1c(-c2nc3cc(CN4CCC[C@H]4C(=O)O)c(OC(F)F)cc3o2)cccc1-c1cccc(-c2nc3cc(CN4CC(C)C(N)C4)cc(C#N)c3o2)c1C` (some centres unmarked) [Example 156] was tested. Which pIC50 did it give?
Answer: 8.30 to 10.00

Question: `Cc1c(-c2nc3cc(CN4CCC[C@H]4C(=O)O)c(OC(F)F)cc3o2)cccc1-c1cccc(-c2nc3ccc(CN4CC(C)(C)C4)cc3o2)c1Cl` [Example 110, ((2-(2′-chloro-3′-(6-((3,3-dimethylazetidin-1-yl)methyl)benzo[d]oxazol-2-yl)-2-methyl-[1,1′-biphenyl]-3-yl)-6-(difluoromethoxy)benzo[d]oxazol-5-yl)methyl)-L-proline] was tested. Which pIC50 did it give?
Answer: 8.30 to 10.00
